Results from patent publication US7604990B2, “Methods of regulating differentiation in stem cells” (ES Cell International Pte Ltd., priority 2002, dated 2009).

Key:
Assay type in all cases: cell-based, human
hES cells [1] = experiment: ELISA-based GCTM-2 quantification in hES cells (Example 2); conditions: treated 2 weeks, serum-free; n=3
Experimental: (§1) hES-3 cells were cultured as previously described^1. The serum-free culture medium consisted of DMEM (without sodium pyruvate, glucose 4500 mg/l, Invitrogen, Mount Waverley, VIC, Australia) supplemented with insulin/transferrin/selenium 1%, β-mercaptoethanol 0.1 mM, NEAA 1%, glutamine 2 mM, Hepes 25 mM, penicillin 50 U/ml and streptomycin […] (all from Invitrogen). Media was changed every 2 days and cells were passaged every week S1P and dihydro-S1P were obtained from Biomol (Plymouth Meeting, Pa., USA). LPA was obtained from Sigma (Castle Hill, NSW, Australia). Extemporaneous dilutions of all lipids were made in water containing 0.1% fatty acid-free bovine serum albumin (BSA) (Sigma). S1P and dihydro-S1P were used at 10 mM. Human PDGF-AB, PDGF-AA, PDGF-BB were from Prepro Tech Inc. (Rocky Hill, N.J., USA) and were used at 20 ng/ml.
Cells were fixed in 100% ethanol and immunostained with GCTM-2 followed by alkaline phosphatase-coupled secondary antibodies (Dako). Alkaline phosphatase activity was detected by adding a solution of 4-nitrophenyl phosphate (Roche), and the concentration of the reaction product was determined by reading the optical density (OD) at 405 nm. In order to validate the technique as an accurate indicator of the proportion of GCTM-2 positive cells, standard curves were carried out with the embryonal carcinoma cell line GCT27C4, known to express GCTM-2^20.

hES cells [2] = experiment: Spontaneous differentiation of hES colonies on MEF in serum-free medium, morphology (Example 2); conditions: 2 weeks serum-free on MEF; S1P 10 μM, PDGF-AB 20 ng/ml, LPA up to 50 μM
Experimental: as §1, with “S1P and dihydro-S1P were used at 10 mM.” left out

hES cells [3] = experiment: Spontaneous differentiation of hES colonies on MEF in serum-free medium, morphology (Example 1); conditions: 8 days serum-free on MEF; S1P 10 μM, PDGF 20 ng/ml, LPA up to 50 μM
Experimental: (A) hES cells grown with MEF, before the depletion of serum from the medium. (B, C, D, E) hES cells grown without serum after 8 days, in the absence (B) or in the presence of S1P (10 μM) (C), PDGF (20 ng/ml) (D), S1P (10 μM) plus PDGF (20 ng/ml) (E). (F) hES cells grown without serum, in the presence or in the absence (control) of S1P (10 μM), PDGF (20 ng/ml), S1P (10 μM) plus PDGF (20 ng/ml). In A-E, data are representative of at least 3 independent experiments. In F, data expressed as percentages of alkaline phosphatase activity in absence of serum for eight days (% of control), are the means±SEM of at least 2 independent experiments, each run in triplicate.
hES-3 cells were cultured as previously described^1. The serum-free culture medium consisted of DMEM (without sodium pyruvate, glucose 4500 mg/l, Invitrogen, Mount Waverley, VIC, Australia) supplemented with insulin/transferrin/selenium 1%, β-mercaptoethanol 0.1 mM, NEAA 1%, glutamine 2 mM, Hepes 25 mM, penicillin 50 U/ml and streptomycin […] (all from Invitrogen). Medium was changed every 2 days and cells were passaged every week. S1P and dihydro-S1P were obtained from Biomol (Plymouth Meeting, Pa., USA) and were dissolved in methanol. LPA was obtained from Sigma (Castle Hill, NSW, Australia) and was dissolved in ethanol. Extemporaneous dilutions of all lipids were made in water containing 0.1% fatty acid-free bovine serum albumin (BSA) (Sigma). Human PDGF-AB, PDGF-AA, PDGF-BB were from PreproTech Inc. (Rocky Hill, N.J., USA).

hES cells [4] = experiment: GCTM-2/PCNA immunostaining cell count, dissociated hES cells without MEF and serum (Example 1); conditions: 4 days, no MEF, no serum
Source text: (A) Quantification of the number of GCTM2+ cells. (B) Quantification of the number of PCNA+/GCTM2+ cells.
In some experiments, hES-3 cells plated onto 8-well chamber slides, with or without MEF, were fixed in ethanol or paraformaldehyde (for PDGFR) the day after plating. In others, hES-3 cells were mechanically dissociated, in order to obtain a monolayer culture and then plated onto 8-well chamber slides without MEF and were fixed in ethanol 4 days after the first treatment. Immunostaining was performed using the following antibodies: anti human PDGFR-α or PDGFR-β (R&D Systems Inc.), GCTM-2, and/or PCNA (Chemicon, Boronia, VIC, Australia), TRA-1-60, Oct-4. Nuclei were evidenced by Hoechst-33342. Slides were mounted and observed by fluorescent microscopy with a Leica microscope at ×10, ×20 and ×40. Specificity was verified by the absence of any staining in the negative controls. In some experiments, cells were counted to determine the ratio of GCTM-2 positive (GCTM2+), PCNA positive (PCNA+) and GCTM2+/PCNA+ cells within the global population.

Q: How did the “more GCTM2+ than the controls” value (hES cells [1]) turn out when `CCCCCCCCCCCCC/C=C/[C@@H](O)[C@@H](N)COP(=O)(O)O` [S1P, Sphingosine-1-phosphate] was run?
A: Its value is 18.0±17.0%.

Q: And the “size or morphology of hES cell colonies (spontaneous differentiation)” value (hES cells [2])?
A: Its value is “flatter and less differentiated”.

Q: And the “colony growth/morphology (spontaneous differentiation)” value (hES cells [3])?
A: Its value is “flatter and less differentiated”.

Q: What about the “proliferating rate of hES cells (PCNA+) versus control” value (hES cells [4]) of the same molecule?
A: The value was “no statistically significant difference”.

Q: For PDGF, which “more GCTM2+ than the controls” value (hES cells [1]) is on record?
A: Its value is 50.3±18.4%.

Q: And the “size or morphology of hES cell colonies (spontaneous differentiation)” value (hES cells [2])?
A: Its value is “flatter and less differentiated”.

Q: And the “colony growth/morphology (spontaneous differentiation)” value (hES cells [3])?
A: The value was “flatter and less differentiated”.

Q: What about the “proliferating rate of hES cells (PCNA+) versus control” value (hES cells [4]) of the same molecule?
A: The value was “no statistically significant difference”.

Q: And the “cells GCTM2+” value (hES cells [4]; mechanically dissociated, S1P 10 μM, PDGF 10 ng/ml)?
A: Its value is 53.7±13.2%.
